Reference: US20240293404A1, “SALT AND CRYSTAL FORMS OF AN EPIDERMAL GROWTH FACTOR RECEPTOR INHIBITOR” (Blueprint Medicines Corporation, priority 2021, published 2024)

Columns and labels:
[1] = Dynamic Vapor Sorption (DVS); type: physicochemical; conditions: between 2 and 95% relative humidity at 25° C.
Procedure: DVS was performed using a DVS Intrinsic 1. The sample (5-25 mg) was loaded into a sample pan, suspended from a microbalance and exposed to a humidified stream of nitrogen gas. The sample was held for a minimum of 5 min at each level and only progressed to the next humidity level if there was <0.002% change in weight between measurements (interval: 60 s) or 60 min had elapsed. The following program was used: • 1—Equilibration at 50% RH • 2—50% to 2%. (50%, 40%, 30%, 20%, 10%, and 2%) • 3—2% to 95% (2%, 10%, 20%, 30%, 40%, 50%, 60%, 70%, 80%, 90%, 95%) • 4—95% to 2% (95%, 80%, 70%, 60%, 50%, 40%, 30%, 20%, 10%, 2%) • 5—2% to 50% (2%, 10%, 20%, 30%, 40%, 50%)

[2] = tested on: EGFR mutant NSCLC; conditions: NSCLC patients; cited from earlier work

Row | DVS mass change [1] | SMILES | time within which resistance mediated by exon 20 C797 mutation (often C797S) usually develops [2]
1 | 2.1 wt. % | CO[C@@H]1CCN(c2nccc(Nc3cc4c(C(C)C)ccc(N5C[C@H](CS(C)(=O)=O)[C@H]5C)c4cn3)n2)C[C@@H]1F [Compound (I) Freebase Form B] | 
2 | 7.1 wt. % | CO[C@@H]1CCN(c2nccc(Nc3cc4c(C(C)C)ccc(N5C[C@H](CS(C)(=O)=O)[C@H]5C)c4cn3)n2)C[C@@H]1F [1:0.5 Compound (I) Semi-Succinate] | 
3 |  | C=CC(=O)Nc1cc(Nc2nccc(-c3cn(C)c4ccccc34)n2)c(OC)cc1N(C)CCN(C)C [osimertinib] | ≤ 10 months
